Measurements taken from paper PMC9230671, “Fluorochrome Selection for Imaging Intraoperative Ovarian Cancer Probes” (Pharmaceuticals, 2022).
Marks after values point to notes of the source that are not given here.

Columns and labels:
COX-2 = molecular target: T1, COX-2 (Homo sapiens, UniProt P35354); test: COX-2 inhibition, COX (ovine/human) inhibitor screening assay kit; format: biochemical; conditions: for COX-2 inhibitory activity (in words): up to 50 µM final concentration
T1 construct: purchased Cayman Chemicals (bought through Sigma-Aldrich) 560131
T1 sequence (P35354 18-604): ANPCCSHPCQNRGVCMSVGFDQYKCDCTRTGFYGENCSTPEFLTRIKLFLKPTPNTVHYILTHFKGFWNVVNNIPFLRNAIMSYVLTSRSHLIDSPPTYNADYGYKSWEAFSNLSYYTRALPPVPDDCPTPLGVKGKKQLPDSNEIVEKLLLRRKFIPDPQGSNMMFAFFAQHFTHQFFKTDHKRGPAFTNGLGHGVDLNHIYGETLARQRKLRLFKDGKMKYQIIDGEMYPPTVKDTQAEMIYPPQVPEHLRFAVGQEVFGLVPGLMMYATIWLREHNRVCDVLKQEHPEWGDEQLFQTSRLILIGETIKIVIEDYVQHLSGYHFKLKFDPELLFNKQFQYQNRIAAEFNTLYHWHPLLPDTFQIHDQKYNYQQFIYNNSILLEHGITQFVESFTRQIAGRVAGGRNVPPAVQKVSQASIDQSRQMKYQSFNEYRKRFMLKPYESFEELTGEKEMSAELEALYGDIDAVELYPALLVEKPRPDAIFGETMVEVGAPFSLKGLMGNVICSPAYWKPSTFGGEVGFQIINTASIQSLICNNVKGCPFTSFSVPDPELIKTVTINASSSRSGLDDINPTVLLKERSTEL
Protocol: Cell culture reagents were purchased from Euroclone (Milan, Italy). COX (ovine/human) inhibitor screening assay kit (Catalog No. 560131, Cayman Chemicals, Ann Arbor, MI, USA) was purchased from Sigma-Aldrich, Burlington, MA, USA. […] The other reagents were purchased from Sigma-Aldrich, Burlington, MA, USA.
The COX-1/2 inhibition screening experiments were carried out according to the manufacturer’s instructions. The plate was incubated for 60 min at r.t. under shaking and read with the Tecan Infinite 200 Microplate Reader at λ = 405 nm.
The graph between percent inhibition of the enzyme and corresponding concentration of the compound provided IC50 values for the probe compounds.

[1] = Fluorescence property measurements (absorption/emission spectra); format: physicochemical; design: Stokes Shift: unit not given here
Protocol: The λabs and λem, of the target compounds were measured in aqueous solution (phosphate-buffered saline solution, PBS) at the concentration of 10^−5 M (Table 1).
Fluorescence spectra of all target compounds were determined in PBS and EtOH solutions (Table 1) with a Tecan Infinite 200 Microplate Reader. In all experiments, the excitation and the emission bandpass were set at λ = 5 nm. The emission spectra were obtained from λ = 280 to 850 nm, with excitation set at the appropriate excitation wavelength. Absorption spectra were recorded with a Shimadzu UV-1800 spectrophotometer.

SKOV-3 xenograft tumors = test: NIR fluorescence imaging / biodistribution in SKOV-3 s.c. xenograft models; format: in vivo, NSG mice; conditions: SKOV-3 s.c. mice, i.v.
Protocol: In addition to OVCAR-3, the COX-1 low expressing SKOV-3 cell line was subcutaneously xenografted to evaluate the specificity of RR11 and 23 (MSA14). RR11 exerted high tumor fluorescence already two hours after injection (n = 2) with similar organ biodistribution as already observed in OVCAR-3 xenografts (TBR = 1.28; Figure 4A and Figure 5A). 23 (MSA14) was evaluated at 6 and 24 h, with a dose of 100 µM and 500 µM in n = 4 SKOV-3 models. […] However, the tumor fluorescence intensity was not sufficient to discriminate between healthy organs and malignant tissue at low exposure times of 100 ms “ex vivo”. The fluorescence signal in COX-1 low-expressing SKOV-3 tumors might be an indication of non-specific compound accumulation.
Female NOD-scid IL2rγ^null (NSG) mice, aged 6 to 25 weeks were maintained under defined floral conditions and no more than five mice were housed in individually ventilated (HEPA-filtered air) cages, kept on a 12 h dark/night schedule at a constant temperature of 21 °C and at 50% relative humidity at the University of Bergen’s animal facility. Observations of body weight and general condition including activity levels, appearance, and food intake were monitored twice weekly, and humane endpoints were defined with the use of score sheets. When indicated, animals were euthanized according to institutional guidelines.
Single cell suspensions of SKOV-3 and OVCAR-3 ovarian cancer cells, cultured as previously described, were obtained by washing the adherent cells with PBS and detached with trypsin-EDTA for 3–5 min at 37 °C. For subcutaneous injection (s.c.), cells were resuspended in an ice-cold mixture of 100 µL per insulin syringe (3/10-cc with 30 g needle) comprising 50 μL saline, 25 µL medium, and 25 µL Matrigel (cat# 08-774-391, Corning Inc®, Fisher Scientific, Waltham, MA, USA). SKOV-3 and OVCAR-3 subcutaneous xenograft models were established through lateral flank injection of 5 × 10^6 cells and 1 × 10^6 cells, respectively, under 3.5% sevoflurane inhalation anesthesia (cat# 29960 SevoFlo, Zoetis, Louvain-la-Neuve, Belgium). Mice were imaged with RR11 and MSA14 when the caliper measurements reached 200–500 mm^3 (Volume = (height × width × length × π)/6).
“In vivo” and “ex vivo” FLI was performed with both COX-1 targeting compounds, the reference compound RR11 and the novel 23 (MSA14), at different concentrations and time points. Prior to FLI, mice were shaved to avoid autofluorescence background signal. The desired concentration (100 µM, 500 µM) of the compound stock solutions in DMSO were freshly diluted with PBS, before 100 µL was injected intravenously into the tail vein. FLI was performed with the IVIS Spectrum In Vivo Imaging System with a λabs 640 ± 15 nm bandpass filter (BP), λem 680 ± 10 nm BP for RR11, and λabs 745 ± 15 nm BP, λem 820 ± 10 nm BP for 23 (MSA14), 0.5–24 h after small molecule administration. All scans were acquired with epi-illumination and auto exposure. Regions of interest (ROI) were manually gated around the tumor, organs, or the whole ventral and lateral positioned mouse and calculated using the Living image software (Perkin Elmer). The ROI of the muscle at the flank region was used to calculate the tumor-to-background (TBR) ratios.

[2] = ethanol (10^−4 M), two bands, listed as 23

| Structure (SMILES) | IC50 (COX-2) [nM] | COX-2 inhibitory activity (in words) (COX-2) | COX-2 inhibitory activity (in words) (COX-2; listed as 23) | λabs [1, 2] [nm] | λem [1, 2] [nm] | average TBR (SKOV-3 xenograft tumors; 6 h, 100 µM) | average TBR (SKOV-3 xenograft tumors; 6 h, 500 µM) | average TBR (SKOV-3 xenograft tumors; 24 h, 100 µM) | average TBR (SKOV-3 xenograft tumors; 24 h, 500 µM) | COX-2 % inhib. (COX-2; at 50 µM compound final concentration) [%] | Stokes Shift ([1]; ethanol (10^−5 M)) | λabs ([1]; ethanol (10^−5 M)) | λem ([1]; ethanol (10^−5 M)) | tumor-to-background ratio (TBR) (SKOV-3 xenograft tumors; two hours after injection) |
| --- | --- | --- | --- | --- | --- | --- | --- | --- | --- | --- | --- | --- | --- | --- |
| CCN1/C(=C/C=C/C=C/C=C/C2=[N+](CCCCCC(=O)NCCCCNC(=O)Cc3onc(-c4ccc(OC)cc4)c3-c3ccc(OC)cc3)c3ccc4ccccc4c3C2(C)C)C(C)(C)c2c1ccc1ccccc21 [23 (MSA14), 3-(6-(4-(2-(3,4-Bis(4-methoxyphenyl)isoxazole-5-yl)acetamido)butyl)amino-6-oxohexyl)-2-[7-(1,3-dihydro-1,1-dimethyl-3-ethyl-2H-benz[e]indolin-2-yl-idene)-1,3,5-heptatrienyl]-1,1-dimethyl-3-(6-carboxilato-hexyl)-1H-benz[e]indolium chloride] | > 50000 | did not inhibit | almost inactive | 770 | 822 | 1.23 | 1.49 | 1.96 | 1.5 |  |  |  |  |  |
| COc1ccc(-c2noc(CC(=O)NCCCCNc3cc4[o+]c5cc(N(C)C)ccc5nc4c4ccccc34)c2-c2ccc(OC)cc2)cc1.[Cl-] [RR11, N-[4-(9-dimethylimino-9H-benzo[a]phenoxazin-5-ylamino)butyl]-2-(3,4-bis(4-methoxyphenyl)isoxazol-5-yl)acetamide chloride, reference compound] | 2400 |  |  |  |  |  |  |  |  | 64 | 62 | 610 ^b nm | 672 ^b nm | 1.28 |
